Test results as given in patent US11352394B2, “Cyclic cell penetrating peptides comprising beta-hairpin motifs and methods of making and using thereof” (Ohio State Innovation Foundation, priority 2016, dated 2022).
Entries after “also recorded” stand apart in the source; their conditions may differ. Square brackets hold non-standard residues; d marks the D form. Peptide text beside a SMILES is read from it. pY = N[C@@H](Cc1ccc(OP(=O)(O)O)cc1)C(=O)O; 2Nal = N[C@@H](Cc1ccc2ccccc2c1)C(=O)O

Tests used:
Keap1-Nrf2 interaction = Keap1-Nrf2 interaction (Homo sapiens, UniProt Q14145); assay: Fluorescence anisotropy-based competition assay, inhibition of Keap1-Nrf2 peptide interaction; assay type: binding; details: for IC50: FA competition with fluorescently labeled Nrf2 peptide and Keap1; for Decrease of affinity for Keap1 / inhibition potency: Asn-Ala analogues vs Asp-Pro parents (BH13, BH15, BH17), BH19: truncation of cargo to 6-aa
Sequence of Keap1-Nrf2 interaction (Q14145 321-609 limits assumed): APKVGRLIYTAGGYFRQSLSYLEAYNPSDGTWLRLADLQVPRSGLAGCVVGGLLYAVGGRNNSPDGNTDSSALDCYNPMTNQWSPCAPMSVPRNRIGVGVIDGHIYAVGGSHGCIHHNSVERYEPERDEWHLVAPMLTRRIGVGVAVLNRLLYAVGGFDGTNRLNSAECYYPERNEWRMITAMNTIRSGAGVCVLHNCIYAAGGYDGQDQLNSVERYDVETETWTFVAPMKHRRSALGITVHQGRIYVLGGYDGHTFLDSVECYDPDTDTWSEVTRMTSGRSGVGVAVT
Procedure: The percentage of inhibition was calculated from the fluorescence anisotropy decrease by using equation % Inhibition=(FAmax−FAobs)/(FAmax−FAmin)×100% and plotted against the inhibitor concentration.

[1] = system: HO-1 protein (Keap1-Nrf2-ARE pathway), HEK293 cells; assay: Anti-HO1 immunoblot of HO-1 protein level in HEK293 cells; assay type: cell-based, human
Procedure: FIG. 5 is an image from a Western blot analysis of HO-1 protein levels in HEK293 cells untreated or after treatment with SFN (10 μM) or a cyclic β-hairpin peptide (40 μM).
FIG. 8 is a western blot showing the effect of peptide BH15 on the protein level of HO-1, a protein downstream of the Keap1-Nrf2-ARE pathway. SFN, a small-molecule positive control; blank, no inhibitor.
The cellular activity of Keap1-Nrf2 inhibitors BH13-18 was assessed by examining their effects on the expression levels of HO-1 protein, by anti-HO1 immunoblot analysis. HO-1 is an antioxidant enzyme under the transcriptional control of Nrf2 binding to the ARE, and disruption of the Keap1-Nrf2 interaction is expected to increase the protein level of HO-1.
(§1) BH15 enters human cells, binds and inhibits the function of Keap1 (which promotes the ubiquitination and degradation of Nrf2), resulting in increased intracellular levels of Nrf2, a transcription factor. […] This in turn results in the increased levels of HO-1, a protein whose expression is controlled by Nrf2.

[2] = system: Nrf2 protein level, HEK293 cells; assay: Western blot of Nrf2 protein level in cytoplasm and nucleus of HEK293 cells; assay type: cell-based, human; details: varying doses
Excerpt: The cellular activity of Keap1-Nrf2 Inhibitor BH15 was characterized, and it was observed that BH15 is biologically active in cell-based assays. Varying doses of BH15 were provided to HEK293 cells in culture. After a period of time, the cells were lysed, and cytosolic fractions were separated from nuclear fractions.
as §1

[3] = system: Grb2/Ras signaling pathway, MDA-MB-468 breast cancer cells; assay: Western blot of MEK and ERK1/2 phosphorylation in EGF-stimulated MDA-MB-468 cells; assay type: cell-based; details: peptide 2 h, EGF 50 ng/mL 10 min
Procedure: FIG. 13 provides western blots depicting the effect of peptides BH23, BH24, and BH25 on the Grb2/Ras signaling pathway. MDA-MB-468 cells were treated with the indicated concentrations of peptide BH23 (a) or control peptides BH24 and BH25 (b) for 2 h and stimulated with EGF (50 ng/mL) for 10 min. The cells were then lysed and the cell lysates were separated on SDS-PAGE and blotted with antibodies specific for phosphorylated and total kinases in the Ras signaling pathway. Glyceraldehyde 3-phosphate dehydrogenase (GAPDH) was used as the loading control. […] Inhibition of ERK1/2 phosphorylation was less dramatic, as expected from its further downstream position on the Grb2/Ras signaling pathway.
FIG. 14(a) is the structure of BH26. FIG. 14(b) provides western blots showing the effect of peptides BH23 and BH26 on the Grb2/Ras signaling pathway. MDA-MB-468 cells were treated with the indicated concentrations of BH23 or BH26 for 2 h and stimulated with EGF (50 ng/mL) for 10 min. The cells were then lysed and the cell lysates were separated on SDS-PAGE and blotted with antibodies specific for phosphorylated and total kinases in the Ras signaling pathway.
BH23 and BH24 were tested for their ability to inhibit the Grb2/Ras signaling pathways, by monitoring the phosphorylation of MEK and ERK1/2 kinases downstream of Ras.

HeLa cells = assay: Cellular (cytosolic) uptake of NF-labeled peptides by flow cytometry (MFI); assay type: cell-based; details: HeLa cells, flow cytometry
Procedure: HeLa cells were treated with 5 μM peptide for 2 h, and their cell uptake efficiencies were determined by flow cytometry analysis. The mean fluorescence intensity (MFI) values derived from cytometry analyses reflect the amounts of peptides inside the cytosol and nucleus, whereas any NF-labeled peptide entrapped inside the acidic endosomes are invisible under the experimental conditions (Id.; Qian, Z et al. Chem. Commun. 2015, 51, 2162-2165).
(§2) The binding affinity of BH23 (unlabeled) for the Grb2 SH2 domain was then determined by examining its ability to compete with the FAM-labeled ligand for binding to the Grb2 SH2 domain by fluorescence polarization (FP). […] Next, BH23 was labeled with NF at the Asn side chain through a miniPEG-Lys linker and its cytosolic entry efficiency was quantitated by treating HeLa cells with 5 μM of the labeled peptide for 2 h before flow cytometry analysis. […] BH23 was also similarly labeled at the Asn side chain with FAM and its entry into HeLa cells was examined by live-cell confocal microscopy. […] Two control peptides (BH24 and BH25) were also prepared for cellular assays. BH24 and BH25 are structurally similar to BH23, except that BH24 contained a Tyr instead of the pY residue (FIG. 11), whereas in BH25 the two hydrophobic residues critical for cellular uptake (Nal-arg) were replaced with Ala-ala (FIG. 12).
BHT1 and BHT2 were labeled with naphthofluorescein (NF) and their cytosolic uptake into HeLa cells was determined by flow cytometry (Table 10).
Additional cell penetrating compounds were prepared and tested for cytosolic delivery. In these compounds there was no beta-hairpin turn creating moiety.

Grb2 SH2 domain = Grb2 SH2 domain (Homo sapiens, UniProt P62993); assay: FP-based competition assay with FAM-labeled reporter ligand for Grb2 SH2 domain; assay type: binding
Sequence of Grb2 SH2 domain (P62993 60-152 limits assumed): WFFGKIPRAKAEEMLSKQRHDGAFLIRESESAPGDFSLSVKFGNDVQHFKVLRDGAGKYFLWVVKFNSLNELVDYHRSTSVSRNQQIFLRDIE
Procedure: FIG. 10(a) is the structure of a Grb2 SH2 ligand. […] This ligand was used as reporter ligand in FA/FP-based competition assays to determine the binding affinities of new Grb2 SH2 domain ligands.
as §2

[4] = LaRochelle et al. 2015; cited from earlier work
mammalian cells = details: Qian et al. 2013; cited from earlier work

Q: For `CC(C)C[C@@H]1NC(=O)[C@H](Cc2ccccc2)NC(=O)[C@H](CCCNC(=N)N)NC(=O)[C@H](CCCNC(=N)N)NC(=O)[C@@H]2CCCN2C(=O)[C@H]2CCCN2C(=O)[C@@H](CCCNC(=N)N)NC(=O)[C@H](Cc2ccc3ccccc3c2)NC(=O)[C@H](Cc2ccccc2)NC(=O)[C@H](Cc2ccccc2)NC(=O)[C@H](CCC(=O)O)NC(=O)CNC(=O)[C@H]([C@@H](C)O)NC(=O)[C@H](CCC(=O)O)NC(=O)[C@@H]2CCCN2C(=O)[C@H](CC(=O)O)NC1=O` [BH15, cyclo(F-F-Φ-r-p-P-R-R-F-L-D-P-E-T-G-E)], which IC50 (Keap1-Nrf2 interaction) is on record?
A: ~160 nM

Q: What about the “HO-1 level, dose response” value ([1]; varying doses) of the same compound?
A: dose-dependently increased

Q: And the “Nrf2 levels in cytosolic and nuclear fractions” value [2]?
A: dose-dependently increased

Q: For `C[C@@H]1NC(=O)[C@H](CC(N)=O)NC(=O)[C@H](Cc2ccccc2)NC(=O)[C@H](CCCNC(=N)N)NC(=O)[C@H](CCCNC(=N)N)NC(=O)[C@@H]2CCCN2C(=O)[C@H]2CCCN2C(=O)[C@@H](CCCNC(=N)N)NC(=O)[C@H](Cc2ccc3ccccc3c2)NC(=O)[C@H](Cc2ccccc2)NC(=O)[C@H](CCC(=O)O)NC(=O)CNC(=O)[C@H]([C@@H](C)O)NC(=O)[C@H](CCC(=O)O)NC1=O` [BH19, cyclo(F-Φ-r-p-P-R-R-F-N-A-E-T-G-E)] (cyclo(F[2Nal][dR][dP]PRRFNAETGE)), which “Decrease of affinity for Keap1 / inhibition potency” value (Keap1-Nrf2 interaction) is on record?
A: 34 fold

Q: Which “Phosphorylation of MEK” value [3] does the source give for `CC(C)[C@@H]1NC(=O)[C@H](Cc2ccc(OP(=O)(O)O)cc2)NC(=O)[C@H](CCCNC(=N)N)NC(=O)[C@H](CCCNC(=N)N)NC(=O)[C@@H]2CCCN2C(=O)[C@H]2CCCN2C(=O)[C@@H](C)NC(=O)[C@H](C)NC(=O)[C@H](Cc2ccccc2)NC(=O)[C@H](CC(N)=O)NC1=O` [BH25, cyclo[F-A-a-p-P-R-R-pY-V-N)] (cyclo([pY]VNFA[dA][dP]PRR)) here?
A: did not decrease and not

Q: And the “Cellular entry / delivery efficiency (in words)” value (HeLa cells)?
A: poor cellular uptake

Q: Which “Decrease of affinity for Keap1 / inhibition potency” value (Keap1-Nrf2 interaction) does the source give for `CC(C)C[C@@H]1NC(=O)[C@H](Cc2ccccc2)NC(=O)[C@H](CCCNC(=N)N)NC(=O)[C@H](CCCNC(=N)N)NC(=O)[C@@H]2CCCN2C(=O)[C@H]2CCCN2C(=O)[C@@H](CCCNC(=N)N)NC(=O)[C@H](Cc2ccc3ccccc3c2)NC(=O)[C@H](Cc2ccccc2)NC(=O)[C@H](CCC(=O)O)NC(=O)CNC(=O)[C@H]([C@@H](C)O)NC(=O)[C@H](CCC(=O)O)NC(=O)[C@H](C)NC(=O)[C@H](CC(N)=O)NC1=O` [BH18, cyclo(F-Φ-r-p-P-R-R-F-L-N-A-E-T-G-E)] (cyclo(F[2Nal][dR][dP]PRRFLNAETGE)) here?
A: ~10 fold

Q: What about the IC50 (Keap1-Nrf2 interaction) of the same compound?
A: 1400 ± 150 nM

Q: Which “HO-1 level (positive control)” value ([1]; 10 μM) does the source give for `C[S+]([O-])CCCCN=C=S` (stereo not drawn) [SFN, Sulforaphane, reference compound] here?
A: increased

Q: With `CC(C)[C@@H]1NC(=O)[C@H](Cc2ccc(O)cc2)NC(=O)[C@H](CCCNC(=N)N)NC(=O)[C@H](CCCNC(=N)N)NC(=O)[C@@H]2CCCN2C(=O)[C@H]2CCCN2C(=O)[C@@H](CCCNC(=N)N)NC(=O)[C@H](Cc2ccc3ccccc3c2)NC(=O)[C@H](Cc2ccccc2)NC(=O)[C@H](CC(N)=O)NC1=O` [BH24, cyclo[F-Φ-r-p-P-R-R-Y-V-N)] (cyclo(YVNF[2Nal][dR][dP]PRR)) as the compound, how does the “Binding to the Grb2 SH2 domain (in words)” value (Grb2 SH2 domain; competition with fluorescently labeled reporter ligand) read?
A: no detectable binding; also recorded: inability to compete

Q: And the IC50 (Grb2 SH2 domain; unlabeled peptide, FP-based competition with FAM-labeled ligand, read-out: IC50 Value, binding to Grb2 SH2 domain)?
A: > 10000 nM

Q: And the “Phosphorylation of MEK” value [3]?
A: did not decrease and not

Q: Which “Cytosolic delivery efficiency (ratio of cytosolic over extracellular cargo concentrations)” value [4] does the source give for nonaarginine (RRRRRRRRR) [Peptide R9] here?
A: 4.4%

Q: For `CC(C)C[C@@H]1NC(=O)[C@H](CCC(N)=O)NC(=O)[C@H](Cc2ccccc2)NC(=O)[C@H](CCCNC(=N)N)NC(=O)[C@H](CCCNC(=N)N)NC(=O)[C@@H]2CCCN2C(=O)[C@H]2CCCN2C(=O)[C@@H](CCCNC(=N)N)NC(=O)[C@H](Cc2ccc3ccccc3c2)NC(=O)[C@H](Cc2ccccc2)NC(=O)[C@H](Cc2ccccc2)NC(=O)[C@H](CCC(=O)O)NC(=O)CNC(=O)[C@H]([C@@H](C)O)NC(=O)[C@H](CCC(=O)O)NC(=O)[C@@H]2CCCN2C(=O)[C@H](CC(=O)O)NC1=O` [BH13, cyclo(F-F-Φ-r-p-P-R-R-F-Q-L-D-P-E-T-G-E)] (cyclo(FF[2Nal][dR][dP]PRRFQLDPETGE)), which IC50 (Keap1-Nrf2 interaction) is on record?
A: ~160 nM

Q: For “cyclo(F-Φ-R-R-R-R-Q)-miniPEG-K(NF) (cyclo(F[2Nal]RRRRQ); not fully specified (residue 7); printed as cyclo(F-Φ-R-R-R-R-Q)-miniPEG-K(NF)) [CPP1, reference compound]”, which “Efficiency of entry into cytoplasm and nucleus, fold higher than nonaarginine (R9)” value (mammalian cells) is on record?
A: 2-5 fold

Q: And the “Cellular Uptake (MFINF, %)” value (HeLa cells; 5 μM NF-labeled peptide, 2 h, relative to CPP1 (100%))?
A: 100%

Q: And the “Cellular Uptake (MFI^NF, %) of Keap1-Nrf2 inhibitors” value (HeLa cells; NF-labeled peptide, relative to CPP1 (100%))?
A: 100%

Q: For `CC(C)C[C@@H]1NC(=O)[C@H](Cc2ccccc2)NC(=O)[C@H](CCCNC(=N)N)NC(=O)[C@H](CCCNC(=N)N)NC(=O)[C@@H]2CCCN2C(=O)[C@H]2CCCN2C(=O)[C@@H](CCCNC(=N)N)NC(=O)[C@H](Cc2ccc3ccccc3c2)NC(=O)[C@H](Cc2ccccc2)NC(=O)[C@H](Cc2ccccc2)NC(=O)[C@H](CCC(=O)O)NC(=O)CNC(=O)[C@H]([C@@H](C)O)NC(=O)[C@H](CCC(=O)O)NC(=O)[C@H](C)NC(=O)[C@H](CC(N)=O)NC1=O` [BH16, cyclo(F-F-Φ-r-p-P-R-R-F-L-N-A-E-T-G-E)] (cyclo(FF[2Nal][dR][dP]PRRFLNAETGE)), which “Decrease of affinity for Keap1 / inhibition potency” value (Keap1-Nrf2 interaction) is on record?
A: ~10 fold
